Source: patent US10899790B2, “Method for modifying T cell population” (OSAKA UNIVERSITY, priority 2016, dated 2021)
“Also recorded” adds a separate entry of the source.

Experiments:
[1] = system: mouse cancer cell line EG7 expressing OVA; experiment: Effect in vivo: EG7 tumor-bearing B6 mice with transferred OT-1 cells; set-up: species or system C57BL/6J mouse
Source text: A mouse cancer cell line EG7 (2×10^6) expressing OVA (chicken ovalbumin) was subcutaneously injected into C57BL/6J mouse (B6 mouse) to form a tumor. Five days later, the mouse in which a tumor was formed was irradiated with radiation at 3 Gy, then T cell-receptive OTCD8^+T cells (OT-1 cells) specific for OVA antigen were isolated from CD45.1 positive OT-I transgenic mouse, and this was transferred into the mouse by 2×10^5 through the tail vein. A total of 3 times every other day from the next day, RDH10 inhibitors (Compound No. 1 (RDHI-012) and Compound No. 2 (RDHI-013)) were administered to the mouse at 100 μg/mouse for each through the tail vein. The RDH10 inhibitors were administered to the mouse by being previously stocked in DMSO at 100 μg/50 μl and adjusted to have a total volume of 200 μl by the addition of 150 μl of PBS.
In the experiment, tumor volumes were measured over time. The frequency of OT-1 cells (OVA specific CD8^+T cells) in peripheral blood on the 20th day was measured. Furthermore, the expression intensity of cell surface antigen molecules (CD62L, CD127), which were markers of memory T cells, was analyzed.
The time course in the mean value of tumor volume after tumor transplantation is illustrated in FIG. 4. The error bars indicate the standard error. The tumor volume was determined by major axis×minor axis×height/2.
On the 20th day after the tumor transplantation, the frequency of transferred OT-I cells contained in peripheral blood was analyzed by flow cytometry. OT-I cells were CD45.1 positive and thus were clearly distinguishable from the host B6 mouse (CD45.2 positive)-derived T cells. The representative results are illustrated in FIG. 5.
The expression intensities of CD62L and CD127 in OT-I cells illustrated in FIG. 5 were analyzed by flow cytometry. The mean value and standard error of each expression intensity are illustrated in FIG. 6.

[2] = target: T1, Retinol Dehydrogenase 10 (RDH10) (Homo sapiens, UniProt Q8IZV5); experiment: Inhibition of RDH10 enzyme activity (microsomal fraction of RDH10-expressed 293T, all-trans retinol to all-trans retinal, HPLC); format: biochemical; conditions: final concentration of 20 μM; relative to DMSO control (FIG. 1)
T1 construct: expressed in transfected cells; host or cells: 293T (microsomal fraction)
T1 sequence (Q8IZV5 1-341): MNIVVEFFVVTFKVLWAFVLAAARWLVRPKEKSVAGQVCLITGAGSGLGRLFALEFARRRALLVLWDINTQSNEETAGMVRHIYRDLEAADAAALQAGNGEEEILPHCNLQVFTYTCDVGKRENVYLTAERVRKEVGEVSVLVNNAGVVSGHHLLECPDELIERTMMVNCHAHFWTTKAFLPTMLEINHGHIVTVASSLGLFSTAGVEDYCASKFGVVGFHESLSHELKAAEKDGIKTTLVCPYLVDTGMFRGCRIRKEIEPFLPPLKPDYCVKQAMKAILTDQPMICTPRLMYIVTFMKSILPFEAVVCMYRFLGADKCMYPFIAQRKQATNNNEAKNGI
Method: All-trans retinol, BSA, and NAD (nicotinamide adenine dinucleotide) as a coenzyme were added to a buffer for reaction (90 mM potassium phosphate buffer, pH7.4, 40 mM KCl) so as to have final concentrations of 10 μM, 10 μM, and 1 mM respectively. This mixture was taken in siliconized tubes by 200 μl for each, the microsomal fractions separated from 293T and RDH10-expressed 293T were added to separate tubes by 10 μl for each, and the mixtures were allowed to react at 37° C. for 15 minutes. After 200 μl of methanol was added to the reaction mixtures to stop the reaction, retinoid was extracted using hexane and concentrated. The concentrated retinoid was dissolved in 150 μl of acetonitrile, separated by HPLC, and subjected to the detection of ultraviolet light absorption at a wavelength of 350 nm, whereby the substrate (all-trans retinol) and the product (all-trans retinal) were detected. In addition, standard samples (all-trans retinol and all-trans retinal) were separated by HPLC and the retention times of the respective standard samples were determined in advance. The solvent for HPLC was acetonitrile: 50 mM ammonium acetate=75:25. As the separation column, Syhergi 4 μm Hydro-RP 80A (manufactured by Phenomenex) was used. In addition, the flow rate was 2.0 ml/min. The RDH10 enzyme activity was calculated by reading the amount of product per fixed time from the chart of HPLC.
All-trans retinol, BSA, and NAD (nicotinamide adenine dinucleotide) as a coenzyme were added to a buffer for reaction (90 mM potassium phosphate buffer, pH7.4, 40 mM KCl) so as to have final concentrations of 10 μM, 10 μM, and 1 mM respectively. This mixture was taken in siliconized tubes by 200 μl for each, the microsomal fraction separated from RDH10-expressed 293T was added to separate tubes by 10 μl for each. The RDH10 inhibitor dissolved in DMSO was added to each tube so as to have a final concentration of 20 μM, and the same amount of DMSO was added to the control tube. The mixture was allowed to react at 37° C. for 15 to 30 minutes, 200 μl of methanol was added to the reaction mixtures, and then retinoid was extracted using hexane and concentrated. The concentrated retinoid was dissolved in 150 μl of acetonitrile, separated by HPLC, and subjected to the detection of ultraviolet light absorption at a wavelength of 350 nm, whereby the substrate (all-trans retinol) and the product (all-trans retinal) were detected. In addition, standard samples (all-trans retinol and all-trans retinal) were separated by HPLC and the retention times of the respective standard samples were determined in advance. The solvent for HPLC was acetonitrile: 50 mM ammonium acetate=75:25. As the separation column, Syhergi 4 μm Hydro-RP 80A (manufactured by Phenomenex) was used. The flow rate was 2.0 ml/min.
The enzyme activity was determined by the waveform area of the product (all-trans retinal) with respective to the waveform area of the non-reacted substrate (all-trans retinol), and the relative value with respect to the enzyme activity in the control is illustrated in FIG. 1. The error bars indicate SD (standard deviation).

## COC(=O)[C@@]1(C)CC[C@]2(C)CC[C@]3(C)C(=CC(=O)[C@@H]4[C@@]5(C)CCC(N)C(C)(C)[C@@H]5CC[C@]43C)[C@H]2C1 (stereo partly drawn) [Compound No. 1, (2S,4aS,6aS,6bR,8aR,12aS,12bR,14bS)-methyl 10-amino-2,4a,6a,6b,9,9,12a-heptamethyl-13-oxo-1,2,3,4,4a,5,6,6a,6b,7,8,8a,9,10,11,12,12a,12b,13,14b-icosahydropicene-2-carboxylate]
[1]; 100 μg/mouse tail vein, 20th day after tumor transplantation (FIG. 5)
  frequency of CD45.1+OT-1 cells (OVA specific CD8+ cells) in peripheral blood: amplify CD45.1^+OT-1 cells
[1]; 100 μg/mouse tail vein, 20th day, flow cytometry (FIG. 6)
  expression of CD62L and CD127 in CD45.1+OT-1 cells: accelerate the expression of CD62L and CD127
[1]; 100 μg/mouse through the tail vein, 3 times every other day
  proliferation of tumor in vivo: suppress the proliferation of tumor in vivo
[1]; 100 μg/mouse through the tail vein, 3 times every other day, 21st day after transplantation (FIG. 4)
  tumor volume: decreased to one several tenths to one several hundredths
[2]
  RDH10 enzyme activity inhibitory action: relatively potent; also recorded: potent RDH10 enzyme activity inhibitory action
